In ChEMBL document CHEMBL1201862, “PubChem BioAssay data set” (2004):
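Results reflect a 48-hour exposure of cells in 96-well plates to compound at five concentrations. Here, GI50 denotes the concentration required for 50% inhibition of growth.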 The source made the active and inactive calls. Rule as the data show it: active = GI50 up to about 1.1 µM and inactive = higher.

What was measured:
Experiment in all cases: NCI-60 cell line screen, 48 h
MDA-MB-231 = system: MDA-MB-231
CCRF-CEM = system: CCRF-CEM
HCC 2998 = system: HCC 2998
MCF7 = system: MCF7
NCI-H23 = system: NCI-H23
RPMI-8226 = system: RPMI-8226
SW-620 = system: SW-620
SF-539 = system: SF-539
SF-295 = system: SF-295
SK-MEL-28 = system: SK-MEL-28
SN12C = system: SN12C
OVCAR-3 = system: OVCAR-3
A498 = system: A498
EKVX = system: EKVX
HCT-116 = system: HCT-116
ACHN = system: ACHN
PC-3 = system: PC-3
MDA-N = system: MDA-N
SNB-19 = system: SNB-19
BT-549 = system: BT-549
HOP-92 = system: HOP-92
KM12 = system: KM12
HCT-15 = system: HCT-15
MOLT-4 = system: MOLT-4
786-0 = system: 786-0
SK-MEL-5 = system: SK-MEL-5
U-251 = system: U-251
M14 = system: M14
SK-OV-3 = system: SK-OV-3
T47D = system: T47D
HOP-62 = system: HOP-62
A549 = system: A549
HL-60 = system: HL-60
K562 = system: K562
IGROV-1 = system: IGROV-1
CAKI-1 = system: CAKI-1
OVCAR-8 = system: OVCAR-8
SK-MEL-2 = system: SK-MEL-2
Malme-3M = system: Malme-3M
MDA-MB-435 = system: MDA-MB-435
UACC-62 = system: UACC-62
HT-29 = system: HT-29
NCI/ADR-RES = system: NCI/ADR-RES
SF-268 = system: SF-268
NCI-H460 = system: NCI-H460
NCI-H226 = system: NCI-H226
LOX IMVI = system: LOX IMVI
NCI-H522 = system: NCI-H522
COLO 205 = system: COLO 205
DU-145 = system: DU-145
Hs-578T = system: Hs-578T
UACC-257 = system: UACC-257
OVCAR-5 = system: OVCAR-5
UO-31 = system: UO-31
TK-10 = system: TK-10
OVCAR-4 = system: OVCAR-4
SNB-75 = system: SNB-75
SR = system: SR

CC(C)(C)c1cc(C(C)(C)C)c(P=C(Cl)Cl)c(C(C)(C)C)c1 (stereo not drawn)
GI50 (MDA-MB-231): > 100 µM (inactive)
GI50 (CCRF-CEM): > 100 µM (inactive)
GI50 (HCC 2998): > 100 µM (inactive)
GI50 (MCF7): > 100 µM (inactive)
GI50 (NCI-H23): > 100 µM (inactive)
GI50 (RPMI-8226): > 100 µM (inactive)
GI50 (SW-620): > 100 µM (inactive)
GI50 (SF-539): > 100 µM (inactive)
GI50 (SF-295): > 100 µM (inactive)
GI50 (SK-MEL-28): > 100 µM (inactive)
GI50 (SN12C): > 100 µM (inactive)
GI50 (OVCAR-3): > 100 µM (inactive)
GI50 (A498): > 100 µM (inactive)
GI50 (EKVX): > 100 µM (inactive)
GI50 (HCT-116): > 100 µM (inactive)
GI50 (ACHN): > 100 µM (inactive)
GI50 (PC-3): > 100 µM (inactive)
GI50 (MDA-N): > 100 µM (inactive)
GI50 (SNB-19): > 100 µM (inactive)
GI50 (BT-549): > 100 µM (inactive)
GI50 (HOP-92): > 100 µM (inactive)
GI50 (KM12): > 100 µM (inactive)
GI50 (HCT-15): > 100 µM
GI50 (MOLT-4): > 100 µM (inactive)
GI50 (786-0): > 100 µM (inactive)
GI50 (SK-MEL-5): > 100 µM (inactive)
GI50 (U-251): > 100 µM (inactive)
GI50 (M14): > 100 µM (inactive)
GI50 (SK-OV-3): > 100 µM (inactive)
GI50 (T47D): > 100 µM (inactive)
GI50 (HOP-62): > 100 µM (inactive)
GI50 (A549): > 100 µM (inactive)
GI50 (HL-60): > 100 µM (inactive)
GI50 (K562): 0.0478 µM (active)
GI50 (IGROV-1): > 100 µM (inactive)
GI50 (CAKI-1): > 100 µM (inactive)
GI50 (OVCAR-8): > 100 µM (inactive)
GI50 (SK-MEL-2): > 100 µM (inactive)
GI50 (Malme-3M): > 100 µM (inactive)
GI50 (MDA-MB-435): > 100 µM (inactive)
GI50 (UACC-62): > 100 µM (inactive)
GI50 (HT-29): > 100 µM (inactive)
GI50 (NCI/ADR-RES): > 100 µM (inactive)
GI50 (SF-268): > 100 µM (inactive)
GI50 (NCI-H460): > 100 µM (inactive)
GI50 (NCI-H226): > 100 µM (inactive)
GI50 (LOX IMVI): > 100 µM (inactive)
GI50 (NCI-H522): > 100 µM (inactive)
GI50 (COLO 205): > 100 µM (inactive)
GI50 (DU-145): > 100 µM (inactive)
GI50 (Hs-578T): > 100 µM (inactive)
GI50 (UACC-257): > 100 µM (inactive)
GI50 (OVCAR-5): > 100 µM (inactive)
GI50 (UO-31): > 100 µM (inactive)
GI50 (TK-10): > 100 µM (inactive)
GI50 (OVCAR-4): > 100 µM (inactive)
GI50 (SNB-75): > 100 µM (inactive)
GI50 (SR): > 100 µM (inactive)

CCOC(=O)C1C(c2ccc(OC)cc2)c2c(nn(-c3ccccc3)c2O)CC1(C)O (stereo not drawn)
GI50 (MDA-MB-231): 59.2 µM (inactive)
GI50 (CCRF-CEM): 7.1 µM (inactive)
GI50 (HCC 2998): 26.4 µM (inactive)
GI50 (MCF7): 33.6 µM (inactive)
GI50 (NCI-H23): 43.5 µM (inactive)
GI50 (RPMI-8226): 2.29 µM (inactive)
GI50 (SW-620): 18.5 µM (inactive)
GI50 (SF-539): 92.7 µM (inactive)
GI50 (SF-295): 2.29 µM (inactive)
GI50 (SK-MEL-28): 37.5 µM (inactive)
GI50 (SN12C): 91.2 µM (inactive)
GI50 (OVCAR-3): 80.4 µM (inactive)
GI50 (A498): > 100 µM (inactive)
GI50 (EKVX): 51.8 µM (inactive)
GI50 (HCT-116): 17.9 µM (inactive)
GI50 (ACHN): 23 µM (inactive)
GI50 (PC-3): 7.5 µM (inactive)
GI50 (MDA-N): 3.21 µM (inactive)
GI50 (SNB-19): 75.2 µM (inactive)
GI50 (BT-549): 0.0159 µM (active)
GI50 (HOP-92): 92.3 µM (inactive)
GI50 (KM12): 7.1 µM (inactive)
GI50 (HCT-15): 14.3 µM
GI50 (MOLT-4): 0.596 µM (active)
GI50 (786-0): > 100 µM (inactive)
GI50 (SK-MEL-5): 2.81 µM (inactive)
GI50 (U-251): 53.3 µM (inactive)
GI50 (M14): 11 µM (inactive)
GI50 (T47D): 12.9 µM (inactive)
GI50 (HOP-62): > 100 µM (inactive)
GI50 (A549): 18.9 µM (inactive)
GI50 (HL-60): 1.38 µM (inactive)
GI50 (IGROV-1): > 100 µM (inactive)
GI50 (CAKI-1): > 100 µM (inactive)
GI50 (OVCAR-8): 98.2 µM (inactive)
GI50 (SK-MEL-2): 93.8 µM (inactive)
GI50 (Malme-3M): > 100 µM (inactive)
GI50 (MDA-MB-435): 3.02 µM (inactive)
GI50 (UACC-62): 1.54 µM (inactive)
GI50 (HT-29): 28 µM (inactive)
GI50 (NCI/ADR-RES): 42.5 µM (inactive)
GI50 (SF-268): > 100 µM (inactive)
GI50 (NCI-H460): 5.48 µM (inactive)
GI50 (LOX IMVI): 0.813 µM (active)
GI50 (NCI-H522): 50 µM (inactive)
GI50 (COLO 205): 16 µM (inactive)
GI50 (DU-145): 38.8 µM (inactive)
GI50 (Hs-578T): > 100 µM (inactive)
GI50 (UACC-257): 3.31 µM (inactive)
GI50 (OVCAR-5): > 100 µM (inactive)
GI50 (UO-31): 11 µM (inactive)
GI50 (TK-10): 50 µM (inactive)
GI50 (OVCAR-4): 96.6 µM (inactive)
GI50 (SNB-75): > 100 µM (inactive)
GI50 (SR): 6.49 µM (inactive)
